Patent US20260337125A1, “RADIOLABELED TYROSINE DERIVATIVE AND APPLICATION THEREOF” (Osaka University, priority 2022, published 2026)

Tests used:
HEK293-hLAT1 = HEK293-hLAT1 (Homo sapiens, UniProt Q01650); assay: Cellular uptake test (Using HEK293); type: cell-based
Description: • Cells to be Used: HEK293-Mock, HEK293-hLAT1, HEK293-hLAT2 (HEK293: Human Embryonic Kidney cells 293) • Culture medium to be used: E-MEM (containing 10% FBS, 1% P/S, 1% NEAA)
(§1) Two days before a test day, a cell suspension was prepared in such a manner that the concentration of predetermined cells was 1×10^5 cells/mL. The cell suspension was seeded in a 24-well multiculture plate at a volume of 0.5 mL per well. On the day of the test, cultures were confirmed to be subconfluent (which refers to a state where 70-80% of the well is covered in density). The cells were washed twice with warmed PBS(-) Buffer (166-23555, FUJIFILM Wako Pure Chemical Corporation), the culture medium was replaced with HBSS(-) Buffer (085-09355, FUJIFILM Wako Pure Chemical Corporation), and the plate was left to stand in an incubator (MINIcell-35, WakenBtech Co., Ltd) until an RI addition test.
(§2) ^211At-AAMT-OMe or ^211At-AAMT was added to the prepared cells at 10 μL/well. BCH (LAT1 inhibitor, 20 mM) or unlabeled AMT (α-methyl tyrosine, 1 μg/mL) was previously (15 minutes before) added ([…]). The cells were cultured (CO2 5%, 37 °C), and after 30 minutes, the liquid was removed by suction using an aspirator. The cells were washed twice with PBS(-). The cells were lysed by adding 0.1N NaOH to obtain a lysate, and the radioactivity of the lysate was measured using a γ counter. After the radioactivity measurement, the lysate was loaded into a 96-well plate at a volume of 10 μL per well, the protein amount was measured by the BCA method, and the number of cells was corrected based on the protein amount. Absorbance was measured by MultiScanFC (Thermo Fisher). The uptake level of ^211At-AAMT-OMe or ^211At-AAMT into the cells (number of radioactivity counts/protein amount) was calculated.

[1] = tested on: human pancreatic cancer cell line (PANC1); assay: Imaging of mice subcutaneously transplanted with human pancreatic cancer cell line PANC1; type: in vivo, human (PANC1) in Balb/c-nu/nu mice; details: 2 hours after administration, 0.5 MBq/0.2 mL per mouse, tail vein
Description: Immunodeficient mice (Balb/c-nu/nu, 5-week-old, male) were habituated for 1 week and then subcutaneously transplanted with a human pancreatic cancer cell line (PANC1, 1×10^7 cells/mouse). After the transplantation, the mice were observed over time until tumor reached a size large enough for imaging (about 1000 mm^3). […] Two hours after administration, the mice were anesthetized by isoflurane inhalation, and planar images were taken using a γ camera (E-cam, Siemens).

PANC1 = assay: Cellular uptake test (Using PANC1); type: cell-based, human
Description: • Cells to be used: PANC1 • Culture medium to be used: D-MEM (containing 10% FBS, 1% P/S)
as §1, with “cells/mL in the same manner as in Test Example 1.” for “cells/mL.”
as §2, with “^211At-AAMT-OMe, ^211At-AAMT-OEt, ^211At-AAMT-OPr, or” for “^211At-AAMT-OMe or”, “of ^211At-AAMT-OMe, ^211At-AAMT-OEt, ^211-At-AAMT-OPr,” for “of ^211At-AAMT-OMe”

[2] = Measurement of accumulated amounts of 211At-labeled compounds in PANC1 tumor-bearing mice; type: in vivo, human (PANC1) in Balb/c-nu/nu mice; details: tumor, iv, 0.1 MBq/animal, 0.1 MBq/0.2 mL per mouse, tail vein, read-out: tumor accumulation
Description: (§3) Radiation doses before and after the administration were measured, and a difference between them was defined as an injected dose (ID). Ten minutes and one hour after administration, the mice were anesthetized by isoflurane inhalation, the tumors were isolated by autopsy in chronological order, and their radiation doses and weights were measured using a gamma counter (2480 Wizard^2, PerkinElmer) and a semimicro scale (Shimadzu Corporation, readability 10 μg), respectively. For comparison between accumulated amounts, accumulated amounts per unit amount (% ID/g) were calculated.
(§4) In Table 1, the amounts of the ^211At-labeled compounds accumulated in tumors of the PANC1 tumor-bearing models (% ID/g) are shown. It should be noted that in Table 1, “OMe” is ^211At-AAMT-OMe, “OEt” is ^211At-AAMT-OEt, “OPr” is ^211At-AAMT-OPr, and “OH” is ^211At-AAMT.

PANC1 tumor = assay: as above; type: in vivo, human (PANC1) in Balb/c-nu/nu mice
Description: as §3, §4

[3] = tested on: CDDP-resistant A549 (A549 CDDP-r); details: 48 hours, 37 °C, Cell counting kit-8
Description: Two days before experiment, A549 and CDDP-resistant A549 (A549 CDDP-r) were each seeded in a 96-well plate at a concentration of 1×10^5 cells/mL. ^211At-AAMT-OMe or ^211At-AAMT adjusted to a predetermined concentration was added to A549 cells and CDDP-resistant A549 cells, respectively, and the cells were cultured (CO2 5%, 37 °C). After the cultivation for 48 hours, Cell counting kit-8 (DOJINDO LABORATORIES) was added. After the addition, the cells were cultured at 37 °C for 1 hour, and cell viability was measured using absorbance at 450 nm as an indicator.

A549 = assay: Therapeutic test on mice subcutaneously transplanted with A549; type: in vivo, human (A549) in Balb/c-nu/nu mice; details: A549 tumor weight 30 days after administration, 0.5 MBq/0.2 mL per mouse, tail vein
Description: Immunodeficient mice (Balb/c-nu/nu, 5-week-old, male) were habituated for 1 week and then subcutaneously transplanted with A549 or CDDP-resistant A549 (A549 CDDP-r) (1×10^7 cells/mouse). The mice were observed over time until engraftment of tumors was confirmed (50 to 100 mm^3), and when the tumors reached a predetermined size, ^211At-AAMT-OMe or ^211At-AAMT diluted with water for injection to 0.5 MBq/0.2 mL per mouse was administered via tail vein. Thirty days after administration, the mice were euthanized and tumor masses were isolated. After fat tissue and the like were trimmed off, the wet weights of the isolated tumor masses were measured to make a histogram.

Chain of HEK293-hLAT1 (Q01650 whole entry): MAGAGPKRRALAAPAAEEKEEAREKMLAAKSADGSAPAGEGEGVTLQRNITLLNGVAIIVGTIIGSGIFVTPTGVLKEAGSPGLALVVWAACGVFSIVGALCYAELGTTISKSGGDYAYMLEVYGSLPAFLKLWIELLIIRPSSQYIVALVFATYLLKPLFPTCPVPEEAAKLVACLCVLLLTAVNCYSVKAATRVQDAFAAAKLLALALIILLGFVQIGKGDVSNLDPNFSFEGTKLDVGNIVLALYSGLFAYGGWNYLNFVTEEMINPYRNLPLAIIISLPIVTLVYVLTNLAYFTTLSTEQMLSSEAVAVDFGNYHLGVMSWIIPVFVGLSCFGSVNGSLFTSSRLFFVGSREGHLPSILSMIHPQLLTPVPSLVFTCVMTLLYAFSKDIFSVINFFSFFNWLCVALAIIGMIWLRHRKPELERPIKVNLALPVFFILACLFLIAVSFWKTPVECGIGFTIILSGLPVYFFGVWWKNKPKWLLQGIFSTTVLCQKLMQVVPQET
Chain of HEK293-hLAT1 (P08195 102-630 partner): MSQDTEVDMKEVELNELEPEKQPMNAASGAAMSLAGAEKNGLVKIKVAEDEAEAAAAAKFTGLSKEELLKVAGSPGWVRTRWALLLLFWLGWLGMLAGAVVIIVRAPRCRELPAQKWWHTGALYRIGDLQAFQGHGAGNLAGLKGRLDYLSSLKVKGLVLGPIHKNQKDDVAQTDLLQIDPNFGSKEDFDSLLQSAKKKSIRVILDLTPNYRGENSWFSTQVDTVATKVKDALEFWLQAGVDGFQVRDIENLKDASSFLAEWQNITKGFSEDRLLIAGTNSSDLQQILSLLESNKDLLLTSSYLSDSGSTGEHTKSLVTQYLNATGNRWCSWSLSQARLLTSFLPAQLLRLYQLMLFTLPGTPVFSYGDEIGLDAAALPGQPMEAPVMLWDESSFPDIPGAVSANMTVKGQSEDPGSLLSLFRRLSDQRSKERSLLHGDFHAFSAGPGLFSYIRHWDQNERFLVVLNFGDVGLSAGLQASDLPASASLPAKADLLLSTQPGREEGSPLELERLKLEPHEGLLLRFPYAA

## COc1ccc(C[C@](C)(N)C(=O)O)cc1[At] [^211At-AAMT-OMe, (S)-3-astato(^211At)-O-methyl-α-methyltyrosine]
HEK293-hLAT1; HEK293-hLAT1 cells (CTL), 30 minutes, 37 °C
  uptake level into cells (number of radioactivity counts/protein amount): strongly taken up into HEK293-hLAT1 cells (CTL), comparable to ^211At-AAMT
HEK293-hLAT1; HEK293-hLAT1 cells, without and with BCH or AMT
  specificity of uptake: specifically taken up into HEK293-hLAT1 cells
[1]
  accumulation in tumor site (planar γ camera image): accumulated in the tumor sites, with a larger amount of ^211At-AAMT-OMe remaining in the tumor
PANC1
  uptake level into cells (number of radioactivity counts/protein amount): much superior in uptake level to ^211At-AAMT
PANC1; PANC1 cells, uptake level immediately after addition
  uptake speed: much superior also in uptake speed
[2]; 10 minutes after administration
  tissue uptake at 10 min: 2.59 %ID/g
[2]; 1 hour after administration
  tissue uptake at 1 h: 3.78 %ID/g
PANC1 tumor; 10 minutes and 1 hour after administration, tail vein
  accumulation in the tumor sites compared to 211At-AAMT: more highly accumulated in the tumor sites than ^211At-AAMT
PANC1 tumor; compared to 211At-AAMT
  retention at tumor sites: superior retention at tumor sites compared to ^211At-AAMT
[3]
  cytotoxicity: more remarkable cytotoxicity against A549 CDDP-r
A549
  anti-tumor effect: comparable to that of ^211At-AAMT on A549
